From ChEMBL document CHEMBL1145997, “Understanding the antitumor activity of novel hydroxysemicarbazide derivatives as ribonucleotide reductase inhibitors using CoMFA and CoMSIA” (J Med Chem, 2003)

Test system: L1210
Experiment: In vitro antitumor activity against L1210 cancer cell line
Format: functional, cell-based
Details: Mus musculus

O=C(/N=C\NNC(=O)NO)NO gave an IC50 of 82 µM.
